In the supplement of paper PMC6965134:
± gives the standard deviation of the averaged measurements.

Assay: TIMS collisional cross section (CCS, N2) of the lipid ion; higher = larger ion cross section
Details: ionization mode: negative, one isomer drawn
Method: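 Lipid extracts of human plasma (NIST SRM 1950), mouse liver or HeLa cells were separated by nanoflow C18 LC (30 min gradient) and analysed by TIMS-PASEF on a timsTOF Pro. Ion mobility was calibrated with the Agilent tuning mix (negative mode ions) and converted to collisional cross sections (Mason–Schamp, N2).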

[1] = sample type: Human plasma, ion (formula + adduct): [C41H82NO8P+HCOO] 1-
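Also: lipids from MTBE extraction, five replicate injections per sample, 100 ms TIMS ramp spanning 0.6–1.95 Vs/cm², lipid identity assigned from PASEF MS/MS spectra.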

## CCCC/C=C\CCCCCCCC(=O)OC[C@H](COP(=O)([O-])OCC[N+](C)(C)C)OC(=O)CCC/C=C\C/C=C\C/C=C\C/C=C\CCCCC [PC 14:1@_20:4]
Sample type: Human plasma, ion (formula + adduct): [C42H74NO8P-CH3] 1-
  TIMS collisional cross section: 268.8 Å²

## CC/C=C\C/C=C\C/C=C\C/C=C\C/C=C\CCCC(=O)O[C@H](COC(=O)CCCCCCC/C=C\CCCC)COP(=O)([O-])OCC[N+](C)(C)C [PC 14:1@_20:5]
Sample type: Mouse Liver, ion (formula + adduct): [C42H72NO8P-H] 1-
  TIMS collisional cross section: 269.9 Å²

## CCCC/C=C\CCCCCCCC(=O)OC[C@H](COP(=O)([O-])OCC[N+](C)(C)C)OC(=O)CCCCCCCCCCCCCCC [PC 14:1_16:0]
Sample type: Mouse Liver, ion (formula + adduct): [C38H74NO8P+Cl] 1-
  TIMS collisional cross section: 268.8 Å²

## CCCC/C=C\CCCCCCCC(=O)OC[C@H](COP(=O)([O-])OCC[N+](C)(C)C)OC(=O)CCCCCCC/C=C\CCCCCC [PC 14:1_16:1@]
Sample type: Human plasma, ion (formula + adduct): [C38H72NO8P+HCOO] 1-
  TIMS collisional cross section: 278.6 Å²

## CCCCCC/C=C\CCCCCCCC(=O)O[C@H](COC(=O)CCCCCCCCCCCCCC)COP(=O)([O-])OCC[N+](C)(C)C [PC 15:0@_16:1]
Sample type: Mouse Liver, ion (formula + adduct): [C39H76NO8P+AcO] 1-
  TIMS collisional cross section: 285.4 Å²

## CCCCC/C=C\C/C=C\C/C=C\CCCCC(=O)O[C@H](COC(=O)CCCCCCCCCCCCCC)COP(=O)([O-])OCC[N+](C)(C)C [PC 15:0@_18:3]
Sample type: Human plasma, ion (formula + adduct): [C41H76NO8P+HCOO] 1-
  TIMS collisional cross section: 287.1 Å²

## CCCCC/C=C\C/C=C\C/C=C\C/C=C\CCCC(=O)O[C@H](COC(=O)CCCCCCCCCCCCCC)COP(=O)([O-])OCC[N+](C)(C)C [PC 15:0@_20:4]
Sample type: Human plasma, ion (formula + adduct): [C43H78NO8P+OAcO] 1-
  TIMS collisional cross section: 295.5 Å²
Sample type: Mouse Liver, ion (formula + adduct): [C43H78NO8P-H] 1-
  TIMS collisional cross section: 285.5 ± 12 Å²

## CC/C=C\C/C=C\C/C=C\C/C=C\C/C=C\C/C=C\CCC(=O)O[C@H](COC(=O)CCCCCCCCCCCCCC)COP(=O)([O-])OCC[N+](C)(C)C [PC 15:0@_22:6]
Sample type: Mouse Liver, ion (formula + adduct): [C45H78NO8P-H] 1-
  TIMS collisional cross section: 280.7 Å²

## CCCCCCCCCCCCCCCC(=O)O[C@H](COC(=O)CCCCCCCCCCCCCC)COP(=O)([O-])OCC[N+](C)(C)C [PC 15:0_16:0@]
Sample type: Human plasma, ion (formula + adduct): [C39H78NO8P+HCOO] 1-
  TIMS collisional cross section: 284.9 Å²
Sample type: Human plasma, ion (formula + adduct): [C39H78NO8P+OAcO] 1-
  TIMS collisional cross section: 290.8 Å²

## CCCCCCCCCCCCCCCC(=O)O[C@H](COC(=O)CCCCCCCCCCCCCC)COP(=O)([O-])OCC[N+](C)(C)C [PC 15:0_16:0]
Sample type: Human plasma, ion (formula + adduct): [C39H78NO8P-H] 1-
  TIMS collisional cross section: 269.8 Å²

## CCCCCCCCCCCCCCCCCC(=O)O[C@H](COC(=O)CCCCCCCCCCCCCC)COP(=O)([O-])OCC[N+](C)(C)C [PC 15:0_18:0@]
[1]
  TIMS collisional cross section: 291.1 Å²

## CCCCCC/C=C\CCCCCCCCCC(=O)O[C@H](COC(=O)CCCCCCCCCCCCCC)COP(=O)([O-])OCC[N+](C)(C)C [PC 15:0_18:1]
Sample type: Human plasma, ion (formula + adduct): [C41H80NO8P+HCOO] 1-
  TIMS collisional cross section: 288.8 Å²

## CCCCC/C=C\C/C=C\CCCCCCCC(=O)O[C@H](COC(=O)CCCCCCCCCCCCCC)COP(=O)([O-])OCC[N+](C)(C)C [PC 15:0_18:2]
Sample type: Human plasma, ion (formula + adduct): [C41H78NO8P+HCOO] 1-
  TIMS collisional cross section: 288.2 Å²
Sample type: Mouse Liver, ion (formula + adduct): [C41H78NO8P+HCOO] 1-
  TIMS collisional cross section: 287.1 Å²

## CCCCC/C=C\C/C=C\C/C=C\C/C=C\CCCC(=O)O[C@H](COC(=O)CCCCCCCCCCCCCC)COP(=O)([O-])OCC[N+](C)(C)C [PC 15:0_20:4]
Sample type: Human plasma, ion (formula + adduct): [C43H78NO8P+HCOO] 1-
  TIMS collisional cross section: 291 Å²

## CC/C=C\C/C=C\C/C=C\C/C=C\C/C=C\C/C=C\CCC(=O)O[C@H](COC(=O)CCCCCCCCCCCCCC)COP(=O)([O-])OCC[N+](C)(C)C [PC 15:0_22:6]
Sample type: Human plasma, ion (formula + adduct): [C45H78NO8P+HCOO] 1-
  TIMS collisional cross section: 294.4 Å²
Sample type: Mouse Liver, ion (formula + adduct): [C45H78NO8P+HCOO] 1-
  TIMS collisional cross section: 294.4 Å²

## CCCCC/C=C\CCCCCCCC(=O)OC[C@H](COP(=O)([O-])OCC[N+](C)(C)C)OC(=O)CCCCCCCCC/C=C\CCCCCCCC [PC 15:1@_20:1]
Sample type: Mouse Liver, ion (formula + adduct): [C43H82NO8P-H] 1-
  TIMS collisional cross section: 279.1 Å²

## CCCCC/C=C\C/C=C\C/C=C\C/C=C\CCCC(=O)O[C@H](COC(=O)CCCCCCC/C=C\CCCCC)COP(=O)([O-])OCC[N+](C)(C)C [PC 15:1@_20:4]
Sample type: Human plasma, ion (formula + adduct): [C43H76NO8P-H] 1-
  TIMS collisional cross section: 275 Å²
Sample type: Mouse Liver, ion (formula + adduct): [C43H76NO8P-H] 1-
  TIMS collisional cross section: 275.6 Å²

## CCCCC/C=C\C/C=C\CCCCCCCC(=O)O[C@H](COC(=O)CCCCCCC/C=C\CCCCC)COP(=O)([O-])OCC[N+](C)(C)C [PC 15:1_18:2]
Sample type: Mouse Liver, ion (formula + adduct): [C41H76NO8P+HCOO] 1-
  TIMS collisional cross section: 286.5 Å²

## CCCCC/C=C\C/C=C\C/C=C\CCCCC(=O)O[C@H](COC(=O)CCCCCCCCCCCCCCC)COP(=O)([O-])OCC[N+](C)(C)C [PC 16:0@_18:3]
Sample type: Human plasma, ion (formula + adduct): [C42H78NO8P+AcO] 1-
  TIMS collisional cross section: 295.1 Å²

## CC/C=C\C/C=C\C/C=C\C/C=C\CCCCC(=O)O[C@H](COC(=O)CCCCCCCCCCCCCCC)COP(=O)([O-])OCC[N+](C)(C)C [PC 16:0@_18:4]
Sample type: Mouse Liver, ion (formula + adduct): [C42H76NO8P+HCOO] 1-
  TIMS collisional cross section: 287.6 Å²

## CCCCC/C=C\C/C=C\C/C=C\C/C=C\C/C=C\CCC(=O)O[C@H](COC(=O)CCCCCCCCCCCCCCC)COP(=O)([O-])OCC[N+](C)(C)C [PC 16:0@_22:5]
Sample type: Human plasma, ion (formula + adduct): [C46H82NO8P-CH3] 1-
  TIMS collisional cross section: 282.7 ± 0.42 Å²
Sample type: Mouse Liver, ion (formula + adduct): [C46H82NO8P-CH3] 1-
  TIMS collisional cross section: 282.4 Å²

## CC/C=C\C/C=C\C/C=C\C/C=C\C/C=C\C/C=C\CCC(=O)O[C@H](COC(=O)CCCCCCCCCCCCCCC)COP(=O)([O-])OCC[N+](C)(C)C [PC 16:0@_22:6]
Sample type: Mouse Liver, ion (formula + adduct): [C46H80NO8P-CH3] 1-
  TIMS collisional cross section: 281.3 Å²

## C=CC(=O)O[C@H](COC(=O)CCCCCCCCCCCCCCC)COP(=O)([O-])OCC[N+](C)(C)C [PC 16:0_3:1@]
Sample type: Human plasma, ion (formula + adduct): [C27H52NO8P+OAcO] 1-
  TIMS collisional cross section: 252.2 Å²
Sample type: Mouse Liver, ion (formula + adduct): [C27H52NO8P+AcO] 1-
  TIMS collisional cross section: 244.7 Å²

## C=CC(=O)O[C@H](COC(=O)CCCCCCCCCCCCCCC)COP(=O)([O-])OCC[N+](C)(C)C [PC 16:0_3:1]
Sample type: Human plasma, ion (formula + adduct): [C27H52NO8P+AcO] 1-
  TIMS collisional cross section: 245.3 Å²
Sample type: Mouse Liver, ion (formula + adduct): [C27H52NO8P+OAcO] 1-
  TIMS collisional cross section: 252.2 Å²

## C=CCCC(=O)O[C@H](COC(=O)CCCCCCCCCCCCCCC)COP(=O)([O-])OCC[N+](C)(C)C [PC 16:0_5:1@]
Sample type: Mouse Liver, ion (formula + adduct): [C29H56NO8P+HCOO] 1-
  TIMS collisional cross section: 247.5 Å²

## C=CCCC(=O)O[C@H](COC(=O)CCCCCCCCCCCCCCC)COP(=O)([O-])OCC[N+](C)(C)C [PC 16:0_5:1]
Sample type: Mouse Liver, ion (formula + adduct): [C29H56NO8P+AcO] 1-
  TIMS collisional cross section: 252.1 Å²

## CCCCCCCCCCCCCCCC(=O)OC[C@H](COP(=O)([O-])OCC[N+](C)(C)C)OC(=O)CCCCCCCC [PC 16:0_9:0@]
Sample type: Human plasma, ion (formula + adduct): [C33H66NO8P-H] 1-
  TIMS collisional cross section: 260.3 Å²

## CCCCCCCCCCCCCCCC(=O)OC[C@H](COP(=O)([O-])OCC[N+](C)(C)C)OC(=O)CCCCCCCCCCCCCCC [PC 16:0_16:0]
Sample type: Human plasma, ion (formula + adduct): [C40H80NO8P+HCOO] 1-
  TIMS collisional cross section: 289.35 ± 2.3 Å²
Sample type: Mouse Liver, ion (formula + adduct): [C40H80NO8P+HCOO] 1-
  TIMS collisional cross section: 287.7 Å²

## CCCCCC/C=C\CCCCCCCC(=O)O[C@H](COC(=O)CCCCCCCCCCCCCCC)COP(=O)([O-])OCC[N+](C)(C)C [PC 16:0_16:1]
Sample type: Human plasma, ion (formula + adduct): [C40H78NO8P+HCOO] 1-
  TIMS collisional cross section: 286.6 Å²

## CCCCCCCCCCCCCCCCC(=O)O[C@H](COC(=O)CCCCCCCCCCCCCCC)COP(=O)([O-])OCC[N+](C)(C)C [PC 16:0_17:0]
[1]
  TIMS collisional cross section: 290.3 Å²

## CCCCCCC/C=C\CCCCCCCC(=O)O[C@H](COC(=O)CCCCCCCCCCCCCCC)COP(=O)([O-])OCC[N+](C)(C)C [PC 16:0_17:1]
Sample type: Mouse Liver, ion (formula + adduct): [C41H80NO8P+HCOO] 1-
  TIMS collisional cross section: 288.8 Å²

## CCCCCCCCCCCCCCCCCC(=O)O[C@H](COC(=O)CCCCCCCCCCCCCCC)COP(=O)([O-])OCC[N+](C)(C)C [PC 16:0_18:0]
Sample type: Human plasma, ion (formula + adduct): [C42H84NO8P+HCOO] 1-
  TIMS collisional cross section: 293.4 Å²
Sample type: Mouse Liver, ion (formula + adduct): [C42H84NO8P+AcO] 1-
  TIMS collisional cross section: 299.1 Å²
Sample type: Mouse Liver, ion (formula + adduct): [C42H84NO8P+HCOO] 1-
  TIMS collisional cross section: 293.4 Å²
